# According to patent publication US11390621B2, “Chiral indole compounds and their use” (ARIAGEN, INC., priority 2019, dated 2022):
# “And” between values parts separate entries of the source, which are not always exact repeats. Equal values may be shown once. Read-outs that look alike come from different tables or passages of the source.
# Columns and labels:
# [1] = target: T1, AhR (Homo sapiens, UniProt P35869); assay: EROD assay (7-ethoxy-resorufin-O-deethylase; CYP1A1 activity) in human HepG2 cells; type: cell-based; settings: for EC90: HepG2, human HepG2 cells
# T1 construct: host or cells: human HepG2 cells
# T1 sequence (P35869 11-848): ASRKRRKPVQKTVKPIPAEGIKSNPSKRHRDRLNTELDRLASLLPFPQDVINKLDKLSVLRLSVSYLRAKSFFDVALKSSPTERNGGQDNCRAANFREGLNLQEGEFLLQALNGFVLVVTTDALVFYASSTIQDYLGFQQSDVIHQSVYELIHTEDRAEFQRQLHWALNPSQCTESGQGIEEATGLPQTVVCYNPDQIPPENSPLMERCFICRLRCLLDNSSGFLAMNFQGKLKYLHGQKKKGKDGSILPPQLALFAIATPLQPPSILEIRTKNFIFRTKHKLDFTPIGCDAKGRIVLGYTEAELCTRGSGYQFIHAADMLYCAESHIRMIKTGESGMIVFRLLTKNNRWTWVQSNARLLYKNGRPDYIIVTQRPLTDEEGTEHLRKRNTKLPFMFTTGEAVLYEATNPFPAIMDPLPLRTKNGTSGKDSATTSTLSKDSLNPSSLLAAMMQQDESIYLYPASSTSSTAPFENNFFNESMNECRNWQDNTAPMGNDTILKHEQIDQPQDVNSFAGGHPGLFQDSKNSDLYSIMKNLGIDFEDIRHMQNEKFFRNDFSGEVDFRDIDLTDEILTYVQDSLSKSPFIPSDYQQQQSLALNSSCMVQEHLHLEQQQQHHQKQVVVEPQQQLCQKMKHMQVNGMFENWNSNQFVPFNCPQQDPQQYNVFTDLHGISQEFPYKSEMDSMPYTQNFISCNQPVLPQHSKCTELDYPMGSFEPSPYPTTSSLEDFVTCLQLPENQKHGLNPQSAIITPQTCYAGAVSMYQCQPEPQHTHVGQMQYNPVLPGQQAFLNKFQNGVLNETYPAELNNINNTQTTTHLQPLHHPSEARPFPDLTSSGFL
# Description: CYP1A1 induction is under the control of the AhR signaling pathway. This Example describes an in vitro assay (7-ethoxy-resorufin-O-deethylase (EROD) assay) that evaluated the AhR modulating activities of the indole compounds described herein. In this assay, the indole compounds were incubated with human HepG2 cells or mouse Hepa1-6 cells. The activity of CYP1A1 in the cells was measured by the conversion of substrate 7-ethoxyresorufin, with the readout being a fluorescence signal associated with the conversion product. The EC50 values of the indole compounds as well as the maximum luminescence induced by them in the assay were determined.
# Human HepG2 cells were obtained from Sigma Aldrich (Catalog 85011430-1VL).
# Human HepG2 cells were grown to 60-80% confluency in tissue culture flasks, lifted with non-enzymatic cell dissociation solution (cell stripper), seeded in a 384-well plate at 5,000 cells per well, treated with the test compounds, and incubated for 20 hours overnight at 37° C. The treatment medium was removed and a solution of substrate 7-ethoxyresorufin (ETX) was added to initiate the reaction. The plate was incubated at 37° C. for 30 minutes. The reaction was subsequently terminated by adding tempered methanol. Fluorescent emission was measured at 590 nm with excitation at 530 nm in a FLEXSTATION III instrument (Molecular Devices).
# [2] = In vivo pharmacokinetic studies in rats; design: species or system SD rats; settings: rats; for AUC(0-t): read-out: AUClast
# Description: This example describes pharmacokinetic (PK) studies of ARI-164, ARI-165, ARI-186, ARI-224, and ARI-226 in mice and rats. In the present studies, the test compounds were given to groups of mice and/or rats (N=3 in each group), intravenously (IV) at 2 mg/kg or orally (PO) at 10, 30, or 40 mg/kg. ARI-186, ARI-224 and ARI-226 were given orally to rats QD for 5 days at 10 mg/kg to assess whether decreased susceptibility to CYP1A1/1A2 metabolism would lead to increased accumulation. IV doses were formulated in DMSO, while PO doses were formulated in a 50/50 mixture of PEG400 and Tween 80 (single dose mouse and rat studies for ARI-164, ARI-165, ARI-186, ARI-224, ARI-226) or PEG400/Kolliphor HS15/Oleic Acid 45/45/10 (ARI-164 repeat dose rat study). Blood samples were collected at pre-dose and over a period of 24 hours post-dose. Plasma concentrations of the test compounds were determined by HPLC.
# [3] = SD, rat, plasma, po, 10 mg/kg, PO 10 mg/kg repeat dose, Day 1, Mean of 3 animals
# [4] = Sprague-Dawley (SD), rat, plasma, po, 10 mg/kg, PO 10 mg/kg repeat dose, Day 1, individual animals (ID 4, 5, 6)
# [5] = Sprague-Dawley (SD), rat, plasma, po, 10 mg/kg, PO 10 mg/kg repeat dose, Day 5, Mean of 3 animals
# [6] = PO 10 mg/kg repeat dose, Day 1, individual animals (ID 4, 5, 6), 10 mg/kg
# [7] = PO 10 mg/kg repeat dose, Day 5, individual animals (ID 4, 5, 6), 10 mg/kg
smiles,measurement,setting,value
"O=C(c1nc(C2(O)CC2)cs1)c1c[nH]c2cc(F)ccc12 [ARI-221, (6-fluoro-1H-indol-3-yl)(4-(1-hydroxycyclopropyl)thiazol-2-yl)methanone]",EC90,[1]; Plate 2,34.5 nM
same,EC50,"[1]; human HepG2 cells, Plate 2",26.1 nM
CC[C@H](N)c1csc(C(=O)c2c[nH]c3ccc(F)cc23)n1 [ARI-218],EC90,[1]; Plate 2,7.9 nM
same,fold more potent than ARI-219 by EC50,[1]; human HepG2 cells,19.7 ×
same,fold more potent than ARI-219 by EC90,[1]; human HepG2 cells,53 ×
same,EC50,"[1]; human HepG2 cells, Plate 2",6.3 nM
O=C(c1nc([C@H](O)C(F)(F)F)cs1)c1c[nH]c2cc(F)ccc12 [ARI-212],EC90,[1]; Plate 1,150 nM
same,EC50,"[1]; human HepG2 cells, Plate 1",21.9 nM
CC[C@@H](N)c1csc(C(=O)c2c[nH]c3ccc(F)cc23)n1 [ARI-219],EC90,[1]; Plate 2,419 nM
same,EC50,"[1]; human HepG2 cells, Plate 2",124 nM
"CC(C)(O)c1csc(C(=O)c2c[nH]c3cc(F)ccc23)n1 [ARI-220, (6-fluoro-1H-indol-3-yl)(4-(2-hydroxypropan-2-yl)thiazol-2-yl)methanone]",EC90,[1]; Plate 2,476 nM
same,EC50,"[1]; human HepG2 cells, Plate 2",372 nM
"CC[C@@H](N)c1csc(C(=O)c2c[nH]c3cc(F)ccc23)n1 [ARI-187, (R)-(4-(1-aminopropyl)thiazol-2-yl)(6-fluoro-1H-indol-3-yl)methanone]",EC90,[1]; Plate 1,152 nM
same,EC50,"[1]; human HepG2 cells, Plate 1",55.6 nM
"NC1(c2csc(C(=O)c3c[nH]c4cc(F)ccc34)n2)CC1 [ARI-225, (4-(1-aminocyclopropyl)thiazol-2-yl)(6-fluoro-1H-indol-3-yl)methanone]",EC90,[1]; Plate 2,109 nM
same,EC50,"[1]; human HepG2 cells, Plate 2",46.8 nM
"CC(C)(N)c1csc(C(=O)c2c[nH]c3cc(F)ccc23)n1 [ARI-226, (4-(2-aminopropan-2-yl)thiazol-2-yl)(6-fluoro-1H-indol-3-yl)methanone]",EC90,[1]; Plate 2,33 nM
same,fold more potent than ARI-164 by EC50,[1]; human HepG2 cells,4.2 ×
same,fold more potent than ARI-164 by EC90,[1]; human HepG2 cells,4.2 ×
same,EC50,"[1]; human HepG2 cells, Plate 2",24.6 nM
same,AUC(0-inf),[2]; [3],832 ng·h/mL
same,Cmax at 1 day,[2]; [3],112 ng/mL
same,MRT inf at 1 day,[2]; [3],5.81 h
same,half-life at 1 day,[2]; [3],2.28 h
same,AUC(0-t),[2]; [3],831 ng·h/mL
same,Tmax at 1 day,"[2]; SD, rat, plasma, po, 10 mg/kg, PO 10 mg/kg repeat dose, Day 1, Mean of 3 animals, read-out: Tmax",4 h
same,Tmax at 5 days,"[2]; SD, rat, plasma, po, 10 mg/kg, PO 10 mg/kg repeat dose, Day 5, individual animals (ID 4, 5, 6)",1 h
same,MRT inf,[2]; [4],5.23 h
same,half-life,[2]; [4],2.55 h
same,Tmax,"[2]; Sprague-Dawley (SD), rat, plasma, po, 10 mg/kg, PO 10 mg/kg repeat dose, Day 1, individual animals (ID 4, 5, 6), read-out: Tmax",4 h
same,AUC(0-inf),[2]; [5],38.7 ng·h/mL
same,MRT inf,[2]; [5],3.01 h
same,half-life,[2]; [5],1.64 h
same,AUC(0-t),[2]; [5],35.7 ng·h/mL
same,Cmax,"[2]; Sprague-Dawley (SD), rat, plasma, po, 10 mg/kg, PO 10 mg/kg repeat dose, Day 5, Mean of 3 animals, read-out: Cmax",9.78 ng/mL
same,Tmax,"[2]; Sprague-Dawley (SD), rat, plasma, po, 10 mg/kg, PO 10 mg/kg repeat dose, Day 5, Mean of 3 animals, read-out: Tmax",1.67 h
same,half-life,"[2]; Sprague-Dawley (SD), rat, plasma, po, 10 mg/kg, PO 10 mg/kg repeat dose, Day 5, individual animals (ID 4, 5, 6)",1.05 h
same,behaviour of exposure after 5 days of repeat dosing (in words),[2]; 10 mg/kg PO QD for 5 days,increased elimination
same,MRTIast,"[2]; PO 10 mg/kg repeat dose, Day 1, Mean of 3 animals",5.78 h
same,AUCinf,[2]; [6],1280 ng·h/mL and 253 ng·h/mL and 963 ng·h/mL
same,AUClast,[2]; [6],1280 ng·h/mL and 253 ng·h/mL and 963 ng·h/mL
same,Cmax,[2]; [6],188 ng/mL and 28.4 ng/mL and 119 ng/mL
same,MRTIast,[2]; [6],5.18 h and 5.96 h and 6.21 h
same,MRTinf,[2]; [6],5.99 h and 6.22 h
same,T1/2,[2]; [6],2.39 h and 1.89 h
same,MRTIast,"[2]; PO 10 mg/kg repeat dose, Day 5, Mean of 3 animals",2.49 h
same,AUCinf,[2]; [7],14.2 ng·h/mL and 54.7 ng·h/mL and 47.3 ng·h/mL
same,AUClast,[2]; [7],13.0 ng·h/mL and 50.9 ng·h/mL and 43.2 ng·h/mL
same,Cmax,[2]; [7],5.33 ng/mL and 13.2 ng/mL and 10.8 ng/mL
same,MRTIast,[2]; [7],1.56 h and 2.76 h and 3.15 h
same,MRTinf,[2]; [7],1.89 h and 3.31 h and 3.82 h
same,T1/2,[2]; [7],1.87 h and 2.01 h
same,Tmax,[2]; [7],2 h
N[C@H](c1csc(C(=O)c2c[nH]c3ccccc23)n1)C(F)(F)F [ARI-228],EC90,[1]; Plate 2,217 nM
same,EC50,"[1]; human HepG2 cells, Plate 2",65.6 nM
"CCC(=O)c1csc(C(=O)c2c[nH]c3cc(F)ccc23)n1 [ARI-143, 1-(2-(6-fluoro-1H-indole-3-carbonyl)thiazol-4-yl)propan-1-one]",EC90,[1]; Plate 2,347 nM
same,EC50,"[1]; human HepG2 cells, Plate 2",95.2 nM
O=C(c1nc([C@@H](O)C(F)(F)F)cs1)c1c[nH]c2cc(F)ccc12 [ARI-211],EC90,[1]; Plate 1,183 nM
same,EC50,"[1]; human HepG2 cells, Plate 1",35.9 nM
N[C@H](c1csc(C(=O)c2c[nH]c3cc(F)ccc23)n1)C(F)(F)F [ARI-223],EC90,[1]; Plate 2,103 nM
same,EC50,"[1]; human HepG2 cells, Plate 2",22.6 nM
N[C@@H](c1csc(C(=O)c2c[nH]c3ccccc23)n1)C(F)(F)F [ARI-229],EC90,[1]; Plate 2,204 nM
same,EC50,"[1]; human HepG2 cells, Plate 2",50.3 nM
